Measurements as given in US12414952B2 (Merck Sharp & Dohme LLC, priority 2018, dated 2025).

How the values were obtained:
[1] = molecular target: human A2a adenosine receptor (Homo sapiens (Human), UniProt P29274); test: A2a binding affinity using radioligand binding, Method (A); details: Method (A): [3H]SCH58261 filtration binding
Text: The A2a receptor affinity binding assay measured the amount of binding of a tritiated ligand with high affinity for the A2a adenosine receptor to membranes made from HEK293 or CHO cells recombinantly expressing the human A2a adenosine receptor, in the presence of varying concentrations of a compound of the invention. The data were generated using either filtration binding or a homogenous scintillation proximity assay (SPA).
Method (A): Measurement of A2a Binding Affinity Using Radioligand Binding
148 μL (5 μg/mL) membranes (Perkin Elmer, Cat. No. RBHA2aM400UA) and 2 μL compounds of the invention to be tested (test compound) were transferred to individual wells of a 96-well polypropylene assay plate and incubated for 15 to 30 min at room temperature. [^3H] SCH58261 ((7-(2-phenylethyl)-5-amino-2-(2-furyl)-pyrazolo-[4,3-e]-1,2,4-triazolo[1,5-c]pyrimidine)) was diluted in assay buffer (50 mM Tris pH 7.4, 10 mM MgCl2, 0.005% Tween20) to a concentration of 4 nM and 50 μL transferred to each well of the assay plate. […] The assay plate was incubated at room temperature for 60 min with agitation. […] Filtering was achieved by aspirating the contents of the assay plate for 5 sec, then washing and aspirating the contents three times with ice-cooled wash buffer (50 mM Tris-HCl pH 7.4, 150 mM NaCl) and allowing the vacuum manifold to dry the plate for […]. The filter plate was incubated for at least 1 h at 55° C. and allowed to dry. The bottom of the filter plate was sealed with backing tape. […] The plate was incubated for at least 20 min, and then the amount of radioactivity remaining in each well was determined using a TopCount® (Perkin Elmer) scintillation counter. After normalization to total and non-specific binding, the percent effect at each compound concentration was calculated. The plot of percent effect versus the log of compound concentration was analyzed electronically using a 4-parameter logistic fit based on the Levenberg-Marquardt algorithm to generate IC50 values.

[2] = molecular target: human A2b adenosine receptor (Homo sapiens (Human), UniProt P29275); test: A2b binding affinity, radioligand filtration binding assay; details: tritiated proprietary A2b antagonist, HEK293 membranes
Sequence of human A2b adenosine receptor (P29275 whole entry): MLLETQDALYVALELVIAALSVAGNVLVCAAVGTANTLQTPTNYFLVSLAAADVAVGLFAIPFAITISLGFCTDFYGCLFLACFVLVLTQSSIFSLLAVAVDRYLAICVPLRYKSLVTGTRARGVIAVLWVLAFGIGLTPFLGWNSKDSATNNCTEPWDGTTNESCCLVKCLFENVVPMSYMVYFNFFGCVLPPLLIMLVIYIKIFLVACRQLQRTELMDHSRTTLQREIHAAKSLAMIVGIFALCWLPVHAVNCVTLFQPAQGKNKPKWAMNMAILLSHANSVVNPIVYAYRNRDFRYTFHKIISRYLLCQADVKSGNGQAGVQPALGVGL
Procedure: Measurement of A2b Binding Affinity
The reported affinity of the compounds of the invention for the human A2b adenosine receptor was determined experimentally using a radioligand filtration binding assay. This assay measures the amount of binding of a tritiated proprietary A2b receptor antagonist, in the presence and absence of a compound of the invention, to membranes made from HEK293 cells recombinantly expressing the human A2b adenosine receptor (Perkin Elmer, Cat. No. ES-013-C).
The filter plate was incubated for at least 1 h at 55° C. and allowed to dry. The bottom of the filter plate was then sealed with backing tape. […] The plates were then incubated for at least 20 min, and then the amount of radioactivity remaining in each well was determined using a TopCount® (Perkin Elmer) scintillation counter. After normalization to total and non-specific binding, the percent effect at each compound concentration was calculated. The plot of percent effect versus the log of compound concentration was analyzed electronically using a 4-parameter logistic fit based on the Levenberg-Marquardt algorithm to generate IC50 values.

Sequence of human A2a adenosine receptor (P29274 whole entry): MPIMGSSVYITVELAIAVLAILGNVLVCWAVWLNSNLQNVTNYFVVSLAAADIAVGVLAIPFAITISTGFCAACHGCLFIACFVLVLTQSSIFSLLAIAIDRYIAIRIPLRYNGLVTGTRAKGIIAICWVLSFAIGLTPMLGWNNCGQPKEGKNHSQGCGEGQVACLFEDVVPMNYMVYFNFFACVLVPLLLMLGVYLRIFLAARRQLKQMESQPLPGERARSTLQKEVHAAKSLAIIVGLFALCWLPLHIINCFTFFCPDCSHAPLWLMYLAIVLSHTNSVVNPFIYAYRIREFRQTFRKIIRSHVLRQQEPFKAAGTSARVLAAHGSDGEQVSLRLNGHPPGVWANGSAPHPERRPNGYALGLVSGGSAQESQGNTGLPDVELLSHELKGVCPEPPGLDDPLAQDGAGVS

Row | SMILES | IC50 [1] [nM] | IC50 [2] [nM]
1 | Cc1c(-c2cc(F)c(F)cc2F)nc(N)c2nc(Cc3ccccc3)nn12 [Example 3.34] | 32.2 | 95.8
2 | Cc1c(-c2ncco2)nc(N)n2nc(CNCc3ccc(C(F)(F)F)cn3)nc12 [Example 10.4, 8-methyl-7-(oxazol-2-yl)-2-((((5-(trifluoromethyl)pyridin-2-yl)methyl)amino)methyl)-[1,2,4]triazolo[1,5-c]pyrimidin-5-amine] | 156 | 330
3 | Cc1c(-c2ncco2)nc(N)n2nc(CNCc3ccc(C(C)(C)O)nc3)nc12 [Example 11.4, 2-(5-((((5-amino-8-methyl-7-(oxazol-2-yl)-[1,2,4]triazolo[1,5-c]pyrimidin-2-yl)methyl)amino)methyl)pyridin-2-yl)propan-2-ol] | 5.4 | 744
4 | CC(C)c1ncc2n1CCN(CCc1nc3cc(-c4cc(F)ccc4O)nc(N)n3n1)C2 [Example 2.10] | 1000 | 400
5 | Cc1c(F)cccc1-c1nc(N)c2nc(Cc3ccccc3)nn2c1C [Example 3.39] | 98.5 | 1020
6 | Cc1c(-c2cccc(F)c2)nc(N)n2nc(CCN3CCc4c(nnn4C(C)C)C3)nc12 [Example 2.16] | 2.3 | 73.4
7 | Cc1c(-c2cncc(C(F)(F)F)c2)nc(N)c2nc(Cc3ccccc3)nn12 [Example 3.22] | 836 | 8700
8 | CC(C)c1ncc2n1CCN(CCc1nc3cc(-c4cc(F)ccc4F)nc(N)n3n1)C2 [Example 2.11] | 246 | 178
9 | Cc1ccc(F)cc1-c1nc(N)c2nc(Cc3ccccc3)nn2c1C [Example 3.35] | 65.6 | 700
10 | Cc1c(-c2ncco2)nc(N)n2nc(CCN3CCn4c(cnc4C4CCC4)C3)nc12 [Example 1.11] | 3.6 | 56.3
11 | Cc1c(-c2ncco2)nc(N)n2nc(CCN3Cc4cn(CC(C)(C)O)nc4C3)nc12 [Example 17.4, 1-(5-(2-(5-amino-8-methyl-7-(oxazol-2-yl)-[1,2,4]triazolo[1,5-c]pyrimidin-2-yl)ethyl)-5,6-dihydropyrrolo[3,4-c]pyrazol-2(4H)-yl)-2-methylpropan-2-ol] | 9.4 | 1430
12 | Cc1c(-c2cc(Cl)ccc2F)nc(N)c2nc(Cc3ccccc3)nn12 [Example 3.24] | 0.7 | 2.4
13 | Cc1c(-c2ncco2)nc(N)n2nc(Cc3ccc(C4(O)CCC4)cc3)nc12 [Example 6.3, 1-(4-((5-amino-8-methyl-7-(oxazol-2-yl)-[1,2,4]triazolo[1,5-c]pyrimidin-2-yl)methyl)phenyl)cyclobutanol] | 17.1 | 10.7
14 | Cc1c(-c2ncco2)nc(N)n2nc(CCN3CCn4c(cnc4C45CC(C4)C5)C3)nc12 [Example 17.7, 2-(2-(3-(bicyclo[1.1.1]pentan-1-yl)-5,6-dihydroimidazo[1,5-a]pyrazin-7(8H)-yl)ethyl)-8-methyl-7-(oxazol-2-yl)-[1,2,4]triazolo[1,5-c]pyrimidin-5-amine] | 0.6 | 17.8
15 | Cc1c(-c2ncco2)nc(N)n2nc(CNCc3ccc(C(C)(C)O)cc3)nc12 [Example 11.2, 2-(4-((((5-amino-8-methyl-7-(oxazol-2-yl)-[1,2,4]triazolo[1,5-c]pyrimidin-2-yl)methyl)amino)methyl)phenyl)propan-2-ol] | 1.1 | 62.6
16 | Cc1c(-c2ncco2)nc(N)n2nc(CCN3Cc4cnn(C)c4C3)nc12 [Example 17.5, 8-methyl-2-(2-(1-methyl-4,6-dihydropyrrolo[3,4-c]pyrazol-5(1H)-yl)ethyl)-7-(oxazol-2-yl)-[1,2,4]triazolo[1,5-c]pyrimidin-5-amine] | 43.6 | 688
17 | Cn1nc(C(F)(F)F)c2c1CCN(CCc1nc3cc(-c4ncco4)nc(N)n3n1)C2 [Example 17.22, 2-(2-(1-methyl-3-(trifluoromethyl)-1,4,6,7-tetrahydro-5H-pyrazolo[4,3-c]pyridin-5-yl)ethyl)-7-(oxazol-2-yl)-[1,2,4]triazolo[1,5-c]pyrimidin-5-amine] | 78.9 | –
